Assay results published in publication PMC7400577 (Scientific Reports, 2020).
Numbering of substitutions follows the chain as printed. pIC50: −log10 of the molar value. Read-outs that look alike come from different tables or passages of the source.

What was measured:
[1] = target: T1, hGAT3 L314Q (Homo sapiens, UniProt P48066, L314Q); assay: [3H]GABA uptake inhibition at hGAT3 L314Q transiently expressed in tsA201 cells; format: cell-based; settings: 30 nM [3H]GABA, transient expression; for pIC50: read-out: IC50 GAT3 L314Q; for IC50: read-out: pIC50 ± S.E.M. GAT3 L314Q (converted)
T1 construct: expressed in transfected cells; host or cells: tsA201 cells, transient (PolyFect), pcDNA5/FRT vector
T1 sequence (P48066 1-632 L314Q): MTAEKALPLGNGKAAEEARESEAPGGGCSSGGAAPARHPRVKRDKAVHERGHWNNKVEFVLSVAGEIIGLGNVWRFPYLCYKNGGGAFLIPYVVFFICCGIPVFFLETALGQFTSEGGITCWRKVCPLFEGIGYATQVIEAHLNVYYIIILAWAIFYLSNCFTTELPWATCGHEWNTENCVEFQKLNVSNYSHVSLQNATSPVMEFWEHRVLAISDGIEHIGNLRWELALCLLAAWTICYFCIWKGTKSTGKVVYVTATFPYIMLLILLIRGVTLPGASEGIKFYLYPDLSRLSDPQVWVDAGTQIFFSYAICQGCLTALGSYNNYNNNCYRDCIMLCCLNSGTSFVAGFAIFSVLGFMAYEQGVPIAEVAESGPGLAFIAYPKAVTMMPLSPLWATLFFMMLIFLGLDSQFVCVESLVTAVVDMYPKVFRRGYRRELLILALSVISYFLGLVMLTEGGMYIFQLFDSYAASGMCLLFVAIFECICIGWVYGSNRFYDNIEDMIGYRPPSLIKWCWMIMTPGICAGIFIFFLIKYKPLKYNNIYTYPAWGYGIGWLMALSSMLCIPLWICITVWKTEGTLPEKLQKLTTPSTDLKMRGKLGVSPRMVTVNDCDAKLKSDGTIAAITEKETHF

[2] = target: T2, hBGT1 E52Y (Homo sapiens, UniProt P48065, E52Y); assay: cell-based; settings: 30 nM [3H]GABA, tsA201 cells, transient expression
T2 sequence (P48065 1-614 E52Y): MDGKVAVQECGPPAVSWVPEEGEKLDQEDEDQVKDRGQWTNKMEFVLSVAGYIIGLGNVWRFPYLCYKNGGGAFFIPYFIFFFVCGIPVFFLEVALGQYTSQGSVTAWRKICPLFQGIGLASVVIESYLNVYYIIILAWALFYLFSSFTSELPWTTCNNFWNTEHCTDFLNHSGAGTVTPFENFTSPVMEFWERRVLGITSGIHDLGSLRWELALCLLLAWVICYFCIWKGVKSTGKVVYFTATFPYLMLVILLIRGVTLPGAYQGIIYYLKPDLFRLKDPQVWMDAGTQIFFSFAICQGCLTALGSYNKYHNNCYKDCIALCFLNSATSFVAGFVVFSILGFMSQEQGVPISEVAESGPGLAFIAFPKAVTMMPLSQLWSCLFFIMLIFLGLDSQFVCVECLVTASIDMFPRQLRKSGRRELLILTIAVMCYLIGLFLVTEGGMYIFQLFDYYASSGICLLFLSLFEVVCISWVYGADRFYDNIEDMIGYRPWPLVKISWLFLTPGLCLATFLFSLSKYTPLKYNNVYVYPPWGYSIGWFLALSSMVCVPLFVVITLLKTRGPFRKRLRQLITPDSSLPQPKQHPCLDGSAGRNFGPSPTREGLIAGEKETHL

[3] = target: T3, hBGT1 E52A (Homo sapiens, UniProt P48065, E52A); assay: cell-based; settings: 30 nM [3H]GABA, tsA201 cells, transient expression
T3 sequence (P48065 1-614 E52A): T2 sequence (P48065 1-614 E52Y) with Y52A

[4] = target: T4, hGAT3 wt (Homo sapiens, UniProt P48066); assay: [3H]GABA uptake inhibition at wt hGAT3 transiently expressed in tsA201 cells; format: cell-based; settings: 30 nM [3H]GABA, transient expression; for pIC50: read-out: IC50 GAT3 wt; for IC50: read-out: pIC50 ± S.E.M. GAT3 wt (converted)
T4 construct: expressed in transfected cells; host or cells: tsA201 cells, transient (PolyFect), pcDNA5/FRT vector
T4 sequence (P48066 1-632): T1 sequence (P48066 1-632 L314Q) with Q314L

## NC1=NCC(C(=O)O)CC1 (stereo not drawn) [compound 2, 6-amino-2,3,4,5-tetrahydropyridine-3-carboxylic acid, reference compound]
[1]
  pIC50: 3.16
[2]; IC50 BGT1 E52Y
  pIC50: 4.36
[2]; pIC50 ± S.E.M. BGT1 E52Y
  pIC50: 4.43
[3]; IC50 BGT1 E52A
  pIC50: 4.51
[3]; pIC50 ± S.E.M. BGT1 E52A
  pIC50: 4.52
[4]
  pIC50: < 3.00

## NC1=NC=C(C(=O)O)CN1.O=C(O)C(F)(F)F [compound 11]
[1]
  pIC50: < 3.00
[2]; IC50 BGT1 E52Y
  pIC50: < 3.00
[3]; IC50 BGT1 E52A
  pIC50: 3.61
[3]; pIC50 ± S.E.M. BGT1 E52A
  pIC50: 3.62
[4]
  pIC50: < 3.00

## Cl.NC1=NCC(C(=O)O)CN1Cc1ccccc1 (stereo not drawn) [compound 4]
[1]
  pIC50: 3.30
  IC50: 490 µM
[2]; IC50 BGT1 E52Y
  pIC50: 4.27
[3]; IC50 BGT1 E52A
  pIC50: 4.05
[3]; pIC50 ± S.E.M. BGT1 E52A
  pIC50: 4.06
[4]
  pIC50: 3.91
  IC50: 115 µM

## CCN1CC(C(=O)O)CN=C1N.Cl (stereo not drawn) [compound 3]
[1]
  pIC50: < 3.00
[2]; IC50 BGT1 E52Y
  pIC50: 3.82
[3]; IC50 BGT1 E52A
  pIC50: 4.13
[3]; pIC50 ± S.E.M. BGT1 E52A
  pIC50: 4.14
[4]
  pIC50: < 3.00

## NC1=NCC(C(=O)O)CN1 (stereo not drawn) [ATPCA, 2-amino-1,4,5,6-tetrahydropyrimidine-5-carboxylic acid, reference compound]
[1]
  pIC50: 4.18
  IC50: 58.9 µM
[2]; IC50 BGT1 E52Y
  pIC50: 5.24
[3]; IC50 BGT1 E52A
  pIC50: 5.36
[4]
  pIC50: 3.07
  IC50: 589 µM

## C[C@@H]1N=C(N)NC[C@@H]1C(=O)O (single isomer, unassigned) [l-15a]
[1]
  pIC50: < 3.00
[2]; IC50 BGT1 E52Y
  pIC50: < 3.00
[3]; pIC50 ± S.E.M. BGT1 E52A
  pIC50: 4.43
[4]
  pIC50: < 3.00
